We go through three compounds from patent US20100031388A1, “MUTANT HISTIDINE KINASE THAT CONFERS SPONTANEOUS NODULATION IN PLANTS” (Plant Biosciences Ltd., priority 2006, published 2010).

The subject of test [1] is Lrr5, Lhk1 and Nin transcripts. The test can be described thus: Quantitative RT-PCR of Lrr5, Lhk1 and Nin transcripts in roots and root explants in response to cytokinin. The class given is in vivo, Lotus japonicus. On the procedure: Steady state levels of Lhk1 and ARR transcripts were determined in roots and other plant organs by quantitative RT-PCR analysis according to the following protocol.
Wild type and snf2 seeds were surface sterilised and germinated as described previously (Handberg, and Stougaard, (1992) Plant J. 2: 487). Plants were grown with 16 h light/8 h dark period at 21° C. Total RNA was isolated from roots, nodules, leaves, flowers and pods of inoculated wild type L. japonicus. mRNA was extracted from roots of wild type and snf2 plants grown for 2 weeks on ¼ B&D (Broughton and Dilworth, (1971) Biochem. J. 125: 1075) supplemented with 0.5 μM potassium nitrate. Roots were treated with 10 μM BAP for three time points, 30 minutes, 3 hours and 8 hours. Untreated roots were taken as control. mRNA was also extracted from root segments of wild type and snf2 plants grown for 10 days on hormone-free B5 salt medium and B5 salt medium supplemented with 0.5 μg/ml of BAP. Dynabeads mRNA direct kit (Invitrogen) was used for the extraction of mRNA.
First strand cDNA was prepared using reverse transcriptase (Fermentas). Quantitative PCR was performed on a Light Cycler (Roche Molecular Biochemicals) using Fast Start DNA master SYBR green kit (Roche) to amplify the target transcripts from 5 μl diluted cDNA. Four house keeping genes (Czechowski et al., (2005) Genome analysis 139: 5) were used to determine the relative expression of target genes (see below). For each treatment, normalized relative ratios of the target genes and the four independent house keeping genes have been calculated using the Relative Quantification Software (Quant) from Roche. The geometric mean (Vandesompele et al., (2002)Genome Biology 3:1) of the relative expression ratios for the three biological and technical replicates and the corresponding 95% intervals of confidence have been calculated as described previously (Radutoiu et al., (2003) Nature 425: 585).

A further test concerns wild type Lotus roots. The test can be described thus: Spontaneous nodulation of wild type hairy roots transformed via A. rhizogenes, scored without rhizobia. The format is in vivo, Lotus japonicus. The following applies: scored in absence of M. loti. How it is done: Transgenic expression of the wild type or mutant snf2 allele in wild type Lotus roots was performed in order to confirm in planta the genetic basis for the spontaneous nodulation phenotype. A genomic fragment of 12.7 kb from the BAC clone 1 K18 was used to clone out the wild type Lhk1 gene including a 2.2 kb promoter region, and its Snf2 allele comprising the C→T transition, which were then sub-cloned into the pIV10 plasmid. The constructs were integrated into A. rhizogenes strain AR12 by tri-parental mating. Transformation was performed as described by Stougaard (1995) Method Mol Biology 49: Plant Gene Transfer and Expression Protocols, p. 49-63, and included transformation with an empty vector control.

The subject of a further test is cps::lacZ reporter. The test can be described thus: Two-component phosphorelay assay in E. coli SRC122 (cps::lacZ), receptor activity read out as β-galactosidase. The class given is cell-based. The following applies: LB plates with/without t-zeatin, kinetin, BAP (200 μM) or thidiazuron (50 μM), 40 hours, 25° C. The source says:
(§1) In this assay cytokinin induction can be determined without interference from endogenous cytokinin levels, cytokinin penetration and interfering metabolic pathways present in plants. The phosphorelay exploited in this assay is normally involved in regulating bacterial extracellular polysaccharide synthesis through activation of the cps operon in response to a sensor (RcsC), which has a domain structure similar to plant cytokinin receptors. Functional expression of a cytokinin receptor in an E. coli strain deleted of RcsC sensor allows cytokinin perception to be read out as β-galactosidase activity from the expression of a cps::lacZ fusion.
(§2) Accordingly the Lhk1 cDNAs, corresponding to wild type and snf2 allele were cloned into the pIN-III expression vector and transformed into the sensor-negative SRC122 (ΔRcsC) strain harbouring the cps::lacZ gene. The transformants were grown overnight in liquid […] and then spotted on LB plates, supplemented with and without t-zeatin, kinetin, BAP (200 μM) each and thidiazuron (50 μM). The LB media was further supplemented with X-Gal (5-bromo-4-chloro-3-indolyl-β-D-[…]), a β-galactosidase substrate. After 40 hours incubation at room temperature (25° C.), the plates were photographed. E coli strain (SRC122) was taken as a negative control.

In test [2] the test system is L. japonicus wild type and snf2 plants. Conditions: increasing concentrations of BAP, 3 weeks (FIG. 8). How it is done:
Accordingly, wild type and snf2 plants were grown on ½ B5 salt with and without increasing concentrations of BAP for 3 weeks. Shoot and root length of at least 60 plants for each treatment was measured.

Test [3] concerns wild type LHK1 cytokinin receptor. The following applies: liquid culture, LHK1 expressing cells (FIG. 5B).
Description: as §1, §2

Test [4] concerns mutant LHK1 cytokinin receptor (snf2 allele). The following applies: liquid culture, snf2 allele expressing cells (FIG. 5B).
Description: as §1, §2

`c1ccc(CNc2ncnc3nc[nH]c23)cc1` [BAP, 6-benzylaminopurine]: the “increase of Lrr5 transcript level” value in test [1] (snf2 and wild-type root explants on B5 medium, 0.5 μg/ml BAP, 10 days (FIG. 7B)) is “two to three-fold”.
As to “Wild type Lhk1 allele: Wild type Lotus histidine kinase gene Lhk1 (SEQ ID NO:1, 2) encoding LHK1 cytokinin receptor protein (SEQ ID NO:3)”, in the test on wild type Lotus roots, the nodule number/nodulated plant is given as 0 and the nodule number/plant was determined as 0. Besides, the “% spontaneous nodulation” value in the test on wild type Lotus roots ((nodulated/total plants)) is given as 0 (0/41) %. In the test with cps::lacZ reporter, the “β-galactosidase activity, plate assay (X-Gal)” value is “induced β-galactosidase activity in a cytokinin-dependent fashion”.
For the compound `C/C(=C\CNc1ncnc2nc[nH]c12)CO` [Cytokinin, Trans-zeatin], in test [2], the “sensitivity of shoot and root growth of snf2 plants compared to wild type” value is reported as “hypersensitive”. Besides, the “induction of β-galactosidase activity on cytokinin addition” value in test [3] is “two fold induction”. For the same compound, the “increase of β-galactosidase activity on cytokinin addition” value in test [4] is reported as “only a marginal increase”. Also, in test [1] (direct treatment of intact snf2 and wild-type roots, 10 μM BAP, 30 minutes, 3 hours, 8 hours (FIG. 7C)), the Lrr5 transcript level entry is listed as “increased”. The Lhk1 gene transcripts entry in test [1] (intact wild type and snf2 roots (FIG. 7D)) is given as “increase rapidly”. The Nin gene transcription result in test [1] (intact wild type and snf2 roots (FIG. 7E)) is “transcriptionally upregulated”.
